Assays:
[1] = tested on: HUVEC; experiment: Cell growth inhibition experiment (SRB), HUVEC; assay type: cell-based, human; details: Homo sapiens, HUVEC, 96 h, 96 hours incubation, read-out: IC50 (μM) […]
Experimental: (§1) The 4-(aryl)-N-(3-alkoxyfuro[2,3-b]pyrazin-2-yl)-piperazine-1-carboxamide derivative compounds synthesized according to Examples 1 to 60 of the present invention were treated with various human tissue-derived cancer cell lines cultured according to Experimental Example 1, and thus the inhibitory effect of the growth of human cancer cells was confirmed. The cell growth inhibition experiment was conducted using the sulforhodamine B (SRB) technique (Skehan et al., J. National Cancer Institute, 1990, 82: 1107-1112). Specifically, each cell line was seeded in a 96-well plate at a density of 2 to 3×10^3 cells/well, cultured overnight, and then treated with the 4-(aryl)-N-(3-alkoxyfuro[2,3-b]pyrazin-2-yl)-piperazine-1-carboxamide derivative compounds of the present invention. The experiment was repeated 3 times for each compound. Cells treated with each compound were additionally incubated for 96 hours, fixed with 10% trichloroacetic acid (TCA), and then left at 4° C. for 1 hour. The resultant was washed 3 times with distilled water. Thereafter, each cell was treated with 0.4% sulforhodamine B dissolved in 1% acetic acid, stained for 30 minutes, and then washed 4 times with 1% acetic acid. The resultant was dried in the air. After shaking the resultant in Tris solution (10 mM) for 5 minutes, the absorbance was measured at 530 nm using a Benchmark Plus Microplate reader (Bio-Rad Laboratories, Hercules, Calif.).
(§2) In order to convert the OD530 value to the number of viable cells per each well, the measured OD530 value was compared to the standard OD530-vs.-cell number curve of each cell line. The percent survival was calculated using the following formula: % survival=Nlive cells(test)/Nlive cells(control)×100

[2] = tested on: MDA-MB-231 (breast cancer) cell line; experiment: Cell growth inhibition experiment (SRB), MDA-MB-231; assay type: cell-based, human; details: Homo sapiens, MDA-MB-231, 96 h, 96 hours incubation
Experimental: (§3) The cell lines below were used in order to confirm the efficacy of the compounds synthesized in Examples 1 to 60. Human PANC-1 (pancreatic cancer) and MDA-MB-231 (breast cancer) cell lines were obtained from the American Type Culture Collection (ATCC; Manassas, Va.); and HN31 (head and neck cancer) and UMRC2 (kidney cancer) cell lines were secured from the United States National Institutes of Health (Bethesda, Md.). The MDA-MB-231, UMRC2, HN31, and PANC-1 cell lines were cultured in Dulbecco modified Eagle medium (DMEM; Invitrogen, Carlsbad, Calif.) containing FBS (10%), HEPES (10 mM), penicillin (100 U/mL), and streptomycin (100 μg/mL). All cell lines were cultured in an incubator (37° C., 5% CO2).
as §1, §2

[3] = tested on: SK-OV-3; experiment: Cell growth inhibition experiment (SRB), SK-OV-3; assay type: cell-based, human; details: Homo sapiens, SK-OV-3, 96 h, 96 hours incubation, read-out: IC50 (μM) for cancer cell line SK-OV-3
Experimental: as §1, §2

[4] = tested on: PANC-1 (pancreatic cancer) cell line; experiment: Cell growth inhibition experiment (SRB), PANC-1; assay type: cell-based; details: Homo sapiens, PANC-1, 96 h, 96 hours incubation
Experimental: as §3, §1, §2

[5] = tested on: HT29; experiment: Cell growth inhibition experiment (SRB), HT29; assay type: cell-based, human; details: Homo sapiens, HT-29, 96 h, 96 hours incubation, read-out: IC50 (μM) for cancer cell line HT29
Experimental: as §1, §2

[6] = tested on: HEK293; experiment: Cell growth inhibition experiment (SRB), HEK293; assay type: cell-based, human; details: Homo sapiens, HEK293, 96 h, 96 hours incubation, read-out: IC50 (μM) for cancer cell line HEK293
Experimental: as §1, §2

[7] = tested on: A549; experiment: Cell growth inhibition experiment (SRB), A549; assay type: cell-based; details: Homo sapiens, A549, 96 h, 96 hours incubation, read-out: IC50 (μM) for cancer cell line A549
Experimental: as §1, §2

[8] = tested on: UMRC2 (kidney cancer) cell line; experiment: Cell growth inhibition experiment (SRB), UMRC2; assay type: cell-based, human; details: Homo sapiens, UMRC2, 96 h, 96 hours incubation
Experimental: as §3, §1, §2

[9] = tested on: HN31 (head and neck cancer) cell line; experiment: Cell growth inhibition experiment (SRB), HN31; assay type: cell-based, human; details: Homo sapiens, 96 h, 96 hours incubation
Experimental: as §3, §1, §2

Compound	IC50 [2] [µM]	IC50 [3] [µM]	IC50 [4] [µM]	IC50 [5] [µM]	IC50 [7] [µM]	IC50 [8] [µM]	IC50 [9] [µM]	IC50 [1] [µM]	IC50 [6] [µM]
CCOc1nc2occc2nc1NC(=O)N1CCN(c2cc(F)cc(F)c2)CC1 [Example 17, 4-(3,5-Difluorophenyl)-N-(3-ethoxyfuro[2,3-b]pyrazin-2-yl)piperazine-1-carboxamide]	0.24	< 2.5	< 2.5	< 2.5	< 2.5	1.65	< 2.5	< 2.5	< 2.5
CCOc1nc2occc2nc1NC(=O)N1CCN(c2cccc(OC(F)(F)F)c2)CC1 [Example 20, N-(3-Ethoxyfuro[2,3-b]pyrazin-2-yl)-4-(3-(trifluoromethoxy)phenyl)piperazine-1-carboxamide]	0.25	0.22	0.36	0.62	0.24	1.63	0.36	0.21	0.12
COc1nc2oc(C)cc2nc1NC(=O)N1CCN(c2cc(F)cc(F)c2)CC1 [Example 27, 4-(3,5-Difluorophenyl)-N-(3-methoxy-6-methylfuro[2,3-b]pyrazin-2-yl)piperazine-1-carboxamide]	0.56	< 2.5	< 2.5	< 2.5	< 2.5	1.13	< 2.5	< 2.5	< 2.5
COc1nc2oc(C)cc2nc1NC(=O)N1CCN(c2cc(C(F)(F)F)cc(C(F)(F)F)c2)CC1 [Example 29, 4-(3,5-Bis(trifluoromethyl)phenyl)-N-(3-methoxy-6-methylfuro[2,3-b]pyrazin-2-yl)piperazine-1-carboxamide]	< 2.5	< 2.5	< 2.5	< 2.5	< 2.5	< 2.5	< 2.5	< 2.5	< 2.5
COc1nc2oc(C)cc2nc1NC(=O)N1CCN(c2cccc(OC(F)(F)F)c2)CC1 [Example 30, N-(3-Methoxy-6-methylfuro[2,3-b]pyrazin-2-yl)-4-(3-(trifluoromethoxy)phenyl)piperazine-1-carboxamide]	0.68	1.12	0.54	1.12	0.25	0.63	1.32	1.12	0.58
CCOc1nc2oc(C)cc2nc1NC(=O)N1CCN(c2cc(OC)cc(OC)c2)CC1 [Example 31, 4-(3,5-Dimethoxyphenyl)-N-(3-ethoxy-6-methylfuro[2,3-b]pyrazin-2-yl)piperazine-1-carboxamide]	0.12	< 2.5	0.44	< 2.5	1.25	0.36	1.63	< 2.5	< 2.5
CCOc1nc2oc(C)cc2nc1NC(=O)N1CCN(c2cc(C)cc(OC)c2)CC1 [Example 32, N-(3-Ethoxy-6-methylfuro[2,3-b]pyrazin-2-yl)-4-(3-methoxy-5-methylphenyl)piperazine-1-carboxamide]	0.44	< 2.5	0.32	< 2.5	1.39	0.52	1.63	< 2.5	1.12

Further lines, with some results ahead:

IC50 [2] [µM]	IC50 [3] [µM]	IC50 [4] [µM]	IC50 [5] [µM]	IC50 [7] [µM]	IC50 [8] [µM]	IC50 [9] [µM]	Compound	IC50 [1] [µM]	IC50 [6] [µM]
0.24	< 2.5	< 2.5	< 2.5	< 2.5	0.44	< 2.5	CCOc1nc2occc2nc1NC(=O)N1CCN(c2cc(C)cc(F)c2)CC1 [Example 16, N-(3-Ethoxyfuro[2,3-b]pyrazin-2-yl)-4-(3-fluoro-5-methylphenyl)piperazine-1-carboxamide]	< 2.5	< 2.5
0.44	< 2.5	< 2.5	< 2.5	< 2.5	0.24	< 2.5	CCOc1nc2occc2nc1NC(=O)N1CCN(c2cc(F)cc(C(F)(F)F)c2)CC1 [Example 18, N-(3-Ethoxyfuro[2,3-b]pyrazin-2-yl)-4-(3-fluoro-5-(trifluoromethyl)phenyl)piperazine-1-carboxamide]	< 2.5	< 2.5
0.34	< 2.5	1.23	0.71	0.44	0.68	0.36	CCOc1nc2occc2nc1NC(=O)N1CCN(c2cc(C(F)(F)F)cc(C(F)(F)F)c2)CC1 [Example 19, 4-(3,5-Bis(trifluoromethyl)phenyl)-N-(3-ethoxyfuro[2,3-b]pyrazin-2-yl)piperazine-1-carboxamide]	0.68	1.23
0.44	1.85	2.12	1.85	1.63	1.74	< 2.5	COc1cc(OC)cc(N2CCN(C(=O)Nc3nc4cc(C)oc4nc3OC)CC2)c1 [Example 21, 4-(3,5-Dimethoxyphenyl)-N-(3-methoxy-6-methylfuro[2,3-b]pyrazin-2-yl)piperazine-1-carboxamide]	< 2.5	1.25
0.36	0.36	0.44	0.28	0.63	0.44	0.28	COc1cc(F)cc(N2CCN(C(=O)Nc3nc4cc(C)oc4nc3OC)CC2)c1 [Example 23, 4-(3-Fluoro-5-methoxyphenyl)-N-(3-methoxy-6-methylfuro[2,3-b]pyrazin-2-yl)piperazine-1-carboxamide]	0.45	0.35
0.12	0.12	0.44	0.36	0.87	0.36	< 2.5	COc1cc(OCCN(C)C)cc(N2CCN(C(=O)Nc3nc4cc(C)oc4nc3OC)CC2)c1 [Example 24, 4-(3-(2-(Dimethylamino)ethoxy)-5-methoxyphenyl)-N-(3-methoxy-6-methylfuro[2,3-b]pyrazin-2-yl)piperazine-1-carboxamide]	< 2.5	0.25
0.15	0.63	0.08	0.25	0.22	< 2.5	0.17	COc1nc2oc(C)cc2nc1NC(=O)N1CCN(c2cc(C)cc(C)c2)CC1 [Example 25, 4-(3,5-Dimethylphenyl)-N-(3-methoxy-6-methylfuro[2,3-b]pyrazin-2-yl)piperazine-1-carboxamide]	0.13	0.36
1.32	< 2.5	< 2.5	< 2.5	< 2.5	1.56	< 2.5	COc1nc2oc(C)cc2nc1NC(=O)N1CCN(c2cc(C)cc(F)c2)CC1 [Example 26, 4-(3-Fluoro-5-methylphenyl)-N-(3-methoxy-6-methylfuro[2,3-b]pyrazin-2-yl)piperazine-1-carboxamide]	< 2.5	< 2.5
< 2.5	< 2.5	< 2.5	< 2.5	< 2.5	< 2.5	< 2.5	COc1nc2oc(C)cc2nc1NC(=O)N1CCN(c2cc(F)cc(C(F)(F)F)c2)CC1 [Example 28, 4-(3-Fluoro-5-(trifluoromethyl)phenyl)-N-(3-methoxy-6-methylfuro[2,3-b]pyrazin-2-yl)piperazine-1-carboxamide]	< 2.5	< 2.5

— patent publication US10800788B2, “4-(aryl)-N-(3-alkoxyfuro[2,3-b]pyrazin-2-yl)-piperazine-1-carboxamide derivative and antiproliferative effect thereof” (Dongguk University Industry-Academic Cooperation Foundation, priority 2016, dated 2020)
